This is an account of results in patent US11292798B2, “Merocyanine-based compound and biomolecular labeling dye, kit and contrast agent composition comprising same” (SFC CO., LTD., priority 2017, dated 2022).

The series is described as follows: absorption spectrum, light emission spectrum, molecular extinction coefficient and quantum efficiency in solvents. The class given is physicochemical.

Turning to `CC1(C)C2=C3C=C(C(=O)[O-])C(=O)OC3CCN2c2ccc(S(=O)(=O)[O-])cc21.[Na+].[Na+]` (centres unmarked) [Compound 2], the “ε (molecular extinction coefficient)” value runs as follows: (solvent CH2Cl2) 20,000 Lmol^−1cm^−1; (solvent DMSO) 30,000 Lmol^−1cm^−1; (solvent H2O) 45,000 Lmol^−1cm^−1; (solvent MeOH) 50,000 Lmol^−1cm^−1; (solvent PBS) 44,000 Lmol^−1cm^−1. The λem by setting is: (solvent CH2Cl2) 495 nm; (solvent DMSO) 500 nm; (solvent H2O) 489 nm; (solvent MeOH) 493 nm; (solvent PBS) 487 nm. Further, the λex runs as follows: (solvent CH2Cl2) 429 nm; (solvent DMSO) 468 nm; (solvent H2O) 453 nm; (solvent MeOH) 463 nm; (solvent PBS) 451 nm. The “φ (quantum efficiency)” value was 0.169 (solvent CH2Cl2); 0.768 (solvent DMSO); 0.718 (solvent H2O); 0.625 (solvent MeOH); 0.796 (solvent PBS).
`CCOC(=O)CCCC(=O)C1=CC2=C3N(CCC2OC1=O)c1ccc2ccccc2c1C3(C)C` (centres unmarked) [Compound 62]: the “ε (molecular extinction coefficient)” value reads like this: (solvent CH2Cl2) 42,000 Lmol^−1cm^−1; (solvent DMSO) 46,000 Lmol^−1cm^−1; (solvent EtOH) 47,000 Lmol^−1cm^−1; (solvent H2O) 26,000 Lmol^−1cm^−1; (solvent PBS) 29,000 Lmol^−1cm^−1. Moreover, the λem reads like this: (solvent CH2Cl2) 511 nm; (solvent DMSO) 516 nm; (solvent EtOH) 516 nm; (solvent H2O) 520 nm; (solvent PBS) 520 nm. In addition, the λex was 486 nm (solvent CH2Cl2); 492 nm (solvent DMSO); 486 nm (solvent EtOH); 468 nm (solvent H2O); 486 nm (solvent PBS). For the same molecule, the “φ (quantum efficiency)” value (solvent CH2Cl2) was 0.944; the “φ (quantum efficiency)” value (solvent DMSO) was 0.958; the “φ (quantum efficiency)” value (solvent EtOH) was 0.820; the “φ (quantum efficiency)” value (solvent H2O) is 0.194; the “φ (quantum efficiency)” value (solvent PBS) is 0.193.
As to `COC(=O)C1=CC2=C3N(CCC2OC1=O)c1ccc2ccccc2c1C3(C)C` (centres unmarked) [Compound 6], for the setting “solvent DMSO”, the “ε (molecular extinction coefficient)” value is given as 53,000 Lmol^−1cm^−1, the λem amounted to 503 nm, the λex was 474 nm and the “φ (quantum efficiency)” value is listed as 0.928.
With `CC1(C)C2=C3C=C(C(=O)O)C(=O)OC3CCN2c2cc3c(cc21)-c1ccccc1C3(C)C` (centres unmarked) [Compound 61], the “ε (molecular extinction coefficient)” value by setting is: (solvent CH2Cl2) 46,000 Lmol^−1cm^−1; (solvent DMSO) 47,000 Lmol^−1cm^−1; (solvent EtOH) 49,000 Lmol^−1cm^−1; (solvent H2O) 46,000 Lmol^−1cm^−1; (solvent PBS) 46,000 Lmol^−1cm^−1. Further, the λem runs as follows: (solvent CH2Cl2) 522 nm; (solvent DMSO) 525 nm; (solvent EtOH) 525 nm; (solvent H2O) 516 nm; (solvent PBS) 518 nm. The λex is, setting by setting: (solvent CH2Cl2) 484 nm; (solvent DMSO) 480 nm; (solvent EtOH) 480 nm; (solvent H2O) 468 nm; (solvent PBS) 468 nm.
For `CC1(C)C2=C3C=C(CC(=O)[O-])C(=O)OC3CCN2c2ccc(S(=O)(=O)[O-])cc21.[Na+].[Na+]` (centres unmarked) [Compound 64], the “ε (molecular extinction coefficient)” value (solvent CH2Cl2) is on record as 22,000 Lmol^−1cm^−1; the “ε (molecular extinction coefficient)” value (solvent DMSO) is on record as 26,000 Lmol^−1cm^−1; the “ε (molecular extinction coefficient)” value (solvent EtOH) is given as 28,000 Lmol^−1cm^−1; the “ε (molecular extinction coefficient)” value (solvent H2O) is 26,000 Lmol^−1cm^−1; the “ε (molecular extinction coefficient)” value (solvent PBS) is given as 27,000 Lmol^−1cm^−1. Besides, the λem runs as follows: (solvent CH2Cl2) 468 nm; (solvent DMSO) 472 nm; (solvent EtOH) 483 nm; (solvent H2O) 500 nm; (solvent PBS) 503 nm. Also, the λex is reported as 414 nm (solvent CH2Cl2); 412 nm (solvent DMSO); 408 nm (solvent EtOH); 422 nm (solvent H2O); 423 nm (solvent PBS). Further, the “φ (quantum efficiency)” value was 0.01 (solvent CH2Cl2); 0.84 (solvent DMSO); 0.78 (solvent EtOH); 0.91 (solvent H2O); 0.95 (solvent PBS).
Regarding `CC(=O)C1=CC2=C3N(CCC2OC1=O)c1ccc2ccccc2c1C3(C)C` (centres unmarked) [Compound 9], for the setting “solvent DMSO”, the “ε (molecular extinction coefficient)” value is 47,000 Lmol^−1cm^−1, the λem was 516 nm, the λex is reported as 492 nm and the “φ (quantum efficiency)” value was 0.910.
In the case of `CC1(C)C2=C3C=C(C(=O)[O-])C(=O)OC3CCN2c2ccccc21.[Na+]` (centres unmarked) [Compound 5], where the note is “solvent DMSO”, the “ε (molecular extinction coefficient)” value is 49,000 Lmol^−1cm^−1, the λem stood at 490 nm, the λex is given as 466 nm and the “φ (quantum efficiency)” value stood at 0.913. Moreover, where the note is “solvent EtOH”, the “ε (molecular extinction coefficient)” value is reported as 51,000 Lmol^−1cm^−1, the λem was determined as 485 nm, the λex turned out to be 462 nm and the “φ (quantum efficiency)” value came to 0.412. Further, for the setting “solvent H2O”, the “ε (molecular extinction coefficient)” value is 50,000 Lmol^−1cm^−1, the λem came out at 483 nm, the λex was determined as 452 nm and the “φ (quantum efficiency)” value was 0.062. For the same molecule, for the setting “solvent PBS”, the “ε (molecular extinction coefficient)” value is reported as 49,000 Lmol^−1cm^−1, the λem came to 483 nm, the λex came out at 454 nm and the “φ (quantum efficiency)” value is 0.633.
As to `COC(=O)C1=CC2=C3N(CCC2OC1=O)c1cc2c(cc1C3(C)C)-c1ccccc1C2(C)C` (centres unmarked) [Compound 60], the “ε (molecular extinction coefficient)” value is 41,000 Lmol^−1cm^−1 (solvent CH2Cl2), 42,000 Lmol^−1cm^−1 (solvent DMSO), 42,000 Lmol^−1cm^−1 (solvent EtOH) and 38,000 Lmol^−1cm^−1 (solvent H2O). For the same molecule, the λem reads like this: (solvent CH2Cl2) 511 nm; (solvent DMSO) 513 nm; (solvent EtOH) 519 nm; (solvent H2O) 523 nm. Besides, the λex was found to be 470 nm (solvent CH2Cl2), 476 nm (solvent DMSO), 474 nm (solvent EtOH) and 476 nm (solvent H2O).
In the case of `CC1(C)C2=C3C=C(C(=O)CCCC(=O)[O-])C(=O)OC3CCN2c2ccc3cc(S(=O)(=O)[O-])ccc3c21.[Na+].[Na+]` (centres unmarked) [Compound 16], the “ε (molecular extinction coefficient)” value runs as follows: (solvent CH2Cl2) 49,000 Lmol^−1cm^−1; (solvent DMSO) 47,000 Lmol^−1cm^−1; (solvent EtOH) 47,000 Lmol^−1cm^−1; (solvent H2O) 48,000 Lmol^−1cm^−1; (solvent PBS) 51,000 Lmol^−1cm^−1. In addition, the λem is on record as 515 nm (solvent CH2Cl2); 519 nm (solvent DMSO); 516 nm (solvent EtOH); 516 nm (solvent H2O); 516 nm (solvent PBS). The λex reads like this: (solvent CH2Cl2) 488 nm; (solvent DMSO) 494 nm; (solvent EtOH) 490 nm; (solvent H2O) 492 nm; (solvent PBS) 492 nm. Further, the “φ (quantum efficiency)” value reads like this: (solvent CH2Cl2) 0.137; (solvent DMSO) 0.935; (solvent EtOH) 0.872; (solvent H2O) 0.405; (solvent PBS) 0.417.
As for `CC1(C)C2=C3C=C(CC(=O)O)C(=O)OC3CCN2c2ccccc21` (centres unmarked) [Compound 63], the “ε (molecular extinction coefficient)” value reads like this: (solvent CH2Cl2) 15,000 Lmol^−1cm^−1; (solvent DMSO) 15,000 Lmol^−1cm^−1; (solvent EtOH) 15,000 Lmol^−1cm^−1; (solvent H2O) 17,000 Lmol^−1cm^−1; (solvent PBS) 17,000 Lmol^−1cm^−1. The λem by setting is: (solvent CH2Cl2) 466 nm; (solvent DMSO) 470 nm; (solvent EtOH) 485 nm; (solvent H2O) 506 nm; (solvent PBS) 507 nm. Moreover, the λex by setting is: (solvent CH2Cl2) 414 nm; (solvent DMSO) 416 nm; (solvent EtOH) 416 nm; (solvent H2O) 432 nm; (solvent PBS) 434 nm.
Turning to `CC1(C)C2=C3C=CC(=O)OC3CCN2c2ccc(S(=O)(=O)[O-])cc21.[Na+]` (centres unmarked) [Compound 3], the “ε (molecular extinction coefficient)” value was 22,000 Lmol^−1cm^−1 (solvent CH2Cl2); 27,000 Lmol^−1cm^−1 (solvent DMSO); 28,000 Lmol^−1cm^−1 (solvent H2O); 27,000 Lmol^−1cm^−1 (solvent MeOH); 28,000 Lmol^−1cm^−1 (solvent PBS). The λem is, setting by setting: (solvent CH2Cl2) 464 nm; (solvent DMSO) 470 nm; (solvent H2O) 492 nm; (solvent MeOH) 484 nm; (solvent PBS) 492 nm. Further, the λex (solvent CH2Cl2) came out at 403 nm; the λex (solvent DMSO) is reported as 416 nm; the λex (solvent H2O) was determined as 423 nm; the λex (solvent MeOH) is recorded as 410 nm; the λex (solvent PBS) worked out at 423 nm. The “φ (quantum efficiency)” value turned out to be 0.227 (solvent CH2Cl2); 0.645 (solvent DMSO); 0.764 (solvent H2O); 0.667 (solvent MeOH); 0.759 (solvent PBS).
Turning to `COC(=O)C1=CC2=C3N(CCC2OC1=O)c1ccccc1C3(C)C` (centres unmarked) [Compound 1], where the note is “solvent DMSO”, the “ε (molecular extinction coefficient)” value is 63,000 Lmol^−1cm^−1, the λem was determined as 479 nm, the λex stood at 456 nm and the “φ (quantum efficiency)” value was 0.900.
